The nature of assay [1]: Cytotoxicity against human Hep3B cells after 3 days by MTT assay. In kind it is functional, cell-based, Hep 3B2. Particulars: 72 h. (Tetrazolium assays rely on reduction of a dye to a coloured formazan, in cell work by metabolically active cells.)
In a further assay the test system is LNCaP. The assay can be described thus: Cytotoxicity against human LNCAP cells after 3 days by MTT assay. In kind it is functional, cell-based. Particulars: 72 h.
The test system of the next assay is HT-29. The assay can be described thus: Cytotoxicity against human HT-29 cells after 3 days by MTT assay. In kind it is functional, cell-based.
The test system of the next assay is MCF7. The assay can be described thus: Cytotoxicity against human MCF7 cells after 3 days by MTT assay. It is filed as functional, cell-based.
Another assay deals with NCI/ADR-RES. The assay can be described thus: Cytotoxicity against human NCI/ADR-RES cells after 3 days by MTT assay. In kind it is functional, cell-based.

Activity calls are given as the source filed them. The rule behind the calls is not given here.

As to `COc1ccc(C[C@@H](C)[C@@H](C)Cc2ccc(OC)c(OC)c2)cc1OC` [TERAMEPROCOL], the IC50 was at most 10 µM in assay [1]; at most 10 µM in the assay on LNCaP; at most 10 µM with HT-29 (HT-29, 72 h); at most 10 µM with MCF7 (MCF7, 72 h); at most 10 µM with NCI/ADR-RES (72 h).
Turning to `C[C@H](Cc1ccc(OCc2cn(CCO)nn2)c(OCc2cn(CCO)nn2)c1)[C@@H](C)Cc1ccc(OCc2cn(CCO)nn2)c(OCc2cn(CCO)nn2)c1`, the outcome in the assay with HT-29, in the assay on MCF7 and in the assay on NCI/ADR-RES was inactive.
For the compound `C[C@H](Cc1ccc(OCc2cn(CCO[C@@H]3O[C@H](CO)[C@H](O)[C@H](O)[C@H]3O)nn2)c(OCc2cn(CCO[C@@H]3O[C@H](CO)[C@H](O)[C@H](O)[C@H]3O)nn2)c1)[C@@H](C)Cc1ccc(OCc2cn(CCO[C@@H]3O[C@H](CO)[C@H](O)[C@H](O)[C@H]3O)nn2)c(OCc2cn(CCO[C@@H]3O[C@H](CO)[C@H](O)[C@H](O)[C@H]3O)nn2)c1`, the result with HT-29, in the assay with MCF7 and in the assay with NCI/ADR-RES was inactive.
`C[C@H](Cc1ccc(OCc2cn(CCCCCCO[C@@H]3O[C@H](CO)[C@@H](O)[C@H](O)[C@H]3O)nn2)c(OCc2cn(CCCCCCO[C@@H]3O[C@H](CO)[C@@H](O)[C@H](O)[C@H]3O)nn2)c1)[C@@H](C)Cc1ccc(OCc2cn(CCCCCCO[C@@H]3O[C@H](CO)[C@@H](O)[C@H](O)[C@H]3O)nn2)c(OCc2cn(CCCCCCO[C@@H]3O[C@H](CO)[C@@H](O)[C@H](O)[C@H]3O)nn2)c1`: the midpoint of inhibition in assay [1], the IC50, lay at 83 µM. The outcome in the assay with HT-29, in the assay with MCF7 and in the assay with NCI/ADR-RES was inactive.
In the case of `C[C@H](Cc1ccc(OCc2cn(CCCCCCO)nn2)c(OCc2cn(CCCCCCO)nn2)c1)[C@@H](C)Cc1ccc(OCc2cn(CCCCCCO)nn2)c(OCc2cn(CCCCCCO)nn2)c1`, the outcome in the assay on HT-29, with MCF7 and in the assay on NCI/ADR-RES was inactive.
In assay [1], `C[C@H](Cc1ccc(OCc2cn(CCCCCCO[C@@H]3O[C@H](CO)[C@H](O)[C@H](O)[C@H]3O)nn2)c(OCc2cn(CCCCCCO[C@@H]3O[C@H](CO)[C@H](O)[C@H](O)[C@H]3O)nn2)c1)[C@@H](C)Cc1ccc(OCc2cn(CCCCCCO[C@@H]3O[C@H](CO)[C@H](O)[C@H](O)[C@H]3O)nn2)c(OCc2cn(CCCCCCO[C@@H]3O[C@H](CO)[C@H](O)[C@H](O)[C@H]3O)nn2)c1` showed an IC50 of 88 µM. Also, the outcome in the assay with HT-29, with MCF7 and in the assay with NCI/ADR-RES was inactive.

In general, IC50 refers to the concentration at which inhibition is half-maximal. Read a low IC50 as greater potency in that assay.
